From article PMC11126104 (Toxins, 2024)

Assays:
[1] = pH 7
[2] = tested on: Caco-2/HT-29MTX monolayers
[3] = tested on: Caco-2/HT-29MTX cells
[4] = in vitro; details: human
[5] = rat, in vivo; cited from earlier work
[6] = cited from earlier work

Compound | intestinal bioaccessibility, range of values [1] | FA (%) absorption category [2] | toxicity / cell viability (MTT) [3] | Papp [4] [×10⁻⁶ cm/s] | absorption within the intestinal tract [5] | log Po/w [6]
CC(C)[C@H]1C(=O)O[C@H](C(C)C)C(=O)N(C)[C@@H](C(C)C)C(=O)O[C@H](C(C)C)C(=O)N(C)[C@@H](C(C)C)C(=O)O[C@H](C(C)C)C(=O)N1C [ENNB, enniatin B] | 0.6-98.2% | High | not affecting cell viability | 91.6 |  | 
aflatoxin B1 [AFB1] |  |  | not affecting cell viability |  | nearly total absorption | 2.09
COc1cc2c(c3oc4cccc(O)c4c(=O)c13)[C@@H]1C=CO[C@@H]1O2 [STG, sterigmatocystin] | 1.5-59.3% | High | not affecting cell viability |  |  | 
